Here are results for two compounds from patent publication US10869928B2, “Lyophilized preparation of cytotoxic dipeptides” (ONCOPEPTIDES AB, priority 2011, dated 2020).

Where a name gives a salt, the structure may show the parent alone.

The nature of series [1]: Stability of melphalan flufenamide dissolved in DMA in a glucose solution. Particulars: dissolved in DMA (dimethylacetamide) in a glucose solution.
Series [2] is described as follows: Stability in aqueous solutions. Format: physicochemical.
The nature of series [3]: Determination of dissolution rate (Example 5). Format: physicochemical. Conditions: Solution: 5% glucose + Polysorbate 80. On the procedure:
A 5% glucose solution was added to each plastic vial containing J1. The vials were shaken and filtered at different time-points. The filtrate was transferred to glass vials and the amount of dissolved J1 was determined by HPLC.

As to `CCOC(=O)[C@H](Cc1ccc(F)cc1)NC(=O)[C@@H](N)Cc1ccc(N(CCCl)CCCl)cc1` [Experiment J1, melphalanyl-L-p-fluorophenylalanine ethyl ester hydrochloride], in series [1], the degradation was 7 % degradation/h. Further, the hydrolysis in water result in series [2] (water) is “quickly hydrolyzed”. In series [3], the “Time (min) to reach steady state dissolution” value lay within 1 to 2 min.
Turning to `N[C@@H](Cc1ccc(N(CCCl)CCCl)cc1)C(=O)O` [Melphalan, p-[bis-(2-chloroethyl)amino]phenylalanine, reference compound], the “times more stable in aqueous solutions compared to J1” value in series [2] (aqueous solutions, relative to J1) was 10,000 times.
